The values below come from publication PMC6557900 (Nature Communications, 2019).

The target of assay [1] is SBC (SOCS2-ElonginB-ElonginC) (Homo sapiens, UniProt O14508+Q15369+Q15370). Briefly: 19F ligand-observed CPMG NMR displacement of spy molecule 3.
Source text: In the ^19F NMR displacement assay, the fluorine signal of a purposely-designed reporter ligand (also referred to as spy molecule) was monitored as a mean to quantify the extent of the competition between the tested peptides and the spy molecule. A Carr-Purcell-Meiboom-Gill (CPMG) pulse sequence was applied to estimate the spin–spin relaxation time (T2) of the spy molecule in the absence and presence of protein[43]–[45]. By adding competitor to disrupt the protein-spy interaction, the binding affinity of a competitor can be calculated based on the degree of displacement of the spy[46],[47].
All NMR experiments were conducted using AV-500 MHz Bruker spectrometer equipped with a 5 mm CPQCI 1H/19F/13C/15N/D Z-GRD cryoprobe) at 298 K. Spectra were recorded using 80 scans of a CPMG pulse sequence that attenuates broad resonances. […] The transmitter frequency was placed close to the resonance of O1 = −35451 Hz (−75.3 ppm). […] All NMR data were processed and analyzed using TopSpin (Bruker).
The dissociation constant of peptides (Ki) was calculated by adapting the method described by Wang et al.[47] Briefly, peptides’ Ki values were obtained from the equation below:1 Ki=([P0]-[PI]-[PL])([I0]-[PI])/[PI] where [I0] and [P0] are the total concentrations of the competitor (peptide inhibitor) and protein, respectively, used in the experiment, while [PI] and [PL] are the free concentrations of protein–peptide and protein–spy complexes, which are unknown.
To determine [PL] the following equation was used:2 IF-II/IF-IP=[PL]/[PL0] where IF is the measured integral of the fluorine peak of the spy molecule free in solution; IP is the integral of the same signal in the presence of protein; II is the integral of the same signal in the presence of protein and competing peptide; and [PL0] is the concentration of protein-spy complex in the absence of competitor, which was calculated using the following equation:3 [PL0]=[P0]+[L0]+KD-([P0]+[L0]+KD)^2-4[P0][L0]/2 where [L0] is the total concentrations of spy molecule used in the experiment, and KD is the dissociation constant of the protein-spy complex (determined by ITC). To determine [PI] the following equation was used: 4 [PL]=[P0]+[L0]+KD-[PI]-([P0]+[L0]+KD-[PI])^2-4([P0]-[PI])[L0]/2 where [PL] was determined as described above (Equation 2).
Assay [2] addresses T1, wild-type SBC (SOCS2-ElonginB-ElonginC) (Homo sapiens, UniProt O14508+Q15369+Q15370).
T1 construct: His6 (N, cleaved yes); made in house; host or cells: E. coli BL21(DE3)
As to the kind of experiment: SPR direct binding, wild-type SBC immobilized on the chip. Particulars: mean ± s.e.m., four independent experiments. On the procedure:
(§1) Biotinylated wild-type SBC and mutants were immobilized onto a chip surface and injected a series of seven concentrations (0.08, 0.25, 0.7, 2.2, 6.7, 20 and 60 μM) of peptide across the sensor surface for 60 s contact time and 120 sec dissociation time at 30 μl min^−1 flow rate. Data analysis was carried out using Biacore Evaluation Software (GE Healthcare). All data were double-referenced for reference surface and blank injection. The processed sensograms were fit to a steady-state affinity using a 1:1 binding model for KD estimation (raw data shown in Supplementary Figs. 10–15).

Assay [3] addresses T2, SOCS2-EloB-EloC ternary (SBC) complex (Homo sapiens, UniProt O14508+Q15369+Q15370).
T2 construct: His6 (N, cleaved yes); made in house; host or cells: E. coli BL21(DE3)
As to the kind of experiment: Isothermal titration calorimetry (ITC), ligand titrated into SBC. Type of assay: binding. The procedure: The ITC titration consisted of 0.4 μl initial injection (discarded during data analysis) followed by 19 of 2 μl injections at 120 s interval between injections. […] Binding data was subtracted from a control titration where peptide was titrated into buffer, and fitted using a one-set-of-site binding model to obtain dissociation constants, binding enthalpy (ΔH), and stoichiometry (N) using MicroCal ITC-ORIGIN Analysis Software 7.0 (Malvern).

Assay [4] has as its target T3, SBC with SOCS2 R96L (Homo sapiens, UniProt O14508+Q15369+Q15370, R96L).
T3 construct: His6 (N, cleaved yes); made in house; host or cells: E. coli BL21(DE3)
Briefly: SPR, SNP mutant SBC immobilized. The assay is classed as binding. Particulars: for SPR KD: source data of Table 3, R96L. On the procedure: (§2) Protein expression was induced with isopropyl β-d-1-thiogalactopyranoside at 18 °C for 12 h. […] SBC was finally purified by size-exclusion chromatography on a Superdex 75 16/600 column (GE Healthcare) in 25 mM HEPES, pH 7.5, 250 mM NaCl and 10 mM DTT.
as §1
In general terms: Surface plasmon resonance follows binding to a sensor surface in real time, without labels.

Assay [5] deals with T4, SBC with SOCS2 N94D (Homo sapiens, UniProt O14508+Q15369+Q15370, N94D).
T4 construct: His6 (N, cleaved yes); made in house; host or cells: E. coli BL21(DE3)
T4 sequence (O14508 32-198 N94D): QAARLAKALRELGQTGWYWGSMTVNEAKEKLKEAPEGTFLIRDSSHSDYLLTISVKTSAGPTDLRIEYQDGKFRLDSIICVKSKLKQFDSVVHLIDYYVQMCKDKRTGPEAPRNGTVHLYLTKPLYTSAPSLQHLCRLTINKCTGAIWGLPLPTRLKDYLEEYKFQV
T4 sequence (Q15370 1-104 partner limits assumed): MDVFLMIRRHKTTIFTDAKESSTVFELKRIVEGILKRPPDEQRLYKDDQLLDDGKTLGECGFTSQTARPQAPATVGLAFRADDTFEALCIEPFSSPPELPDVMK
T4 sequence (Q15369 17-112 partner limits assumed): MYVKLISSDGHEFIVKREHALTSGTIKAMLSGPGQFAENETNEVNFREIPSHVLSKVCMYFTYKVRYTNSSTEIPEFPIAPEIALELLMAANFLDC
Briefly: SPR, SNP mutant SBC immobilized. Type of assay: binding. Particulars: source data of Table 3, N94D. The procedure:
as §2, §1

Assay [6] has as its target T5, SBC with SOCS2 L106V (Homo sapiens, UniProt O14508+Q15369+Q15370, L106V).
T5 construct: His6 (N, cleaved yes); made in house; host or cells: E. coli BL21(DE3)
Briefly: SPR, SNP mutant SBC immobilized. Type of assay: binding. Particulars: read-out: SPR dissociation constant KD. The procedure: as §2, §1

The target of assay [7] is T6, SBC with SOCS2 R96Q (Homo sapiens, UniProt O14508+Q15369+Q15370, R96Q).
T6 construct: His6 (N, cleaved yes); made in house; host or cells: E. coli BL21(DE3)
T6 sequence (O14508 32-198 R96Q): as the sequence (O14508 32-198 N94D) above, with D63N, R65Q counted along it
T6 sequence (Q15370 1-104 partner limits assumed): as the sequence (Q15370 1-104 partner limits assumed) above
T6 sequence (Q15369 17-112 partner limits assumed): as the sequence (Q15369 17-112 partner limits assumed) above
As to the kind of experiment: SPR, SNP mutant SBC immobilized. The assay is classed as binding. The following applies: for SPR KD: source data of Table 3, R96Q. The procedure: as §2, §1

The mark [8] stands for this setting: Table 2, biotinylated wild-type SBC immobilized, peptide 0.08-60 μM, 20 mM HEPES pH7.5, 150 mM NaCl, 1 mM TCEP, 0.005% Tween20, 10 °C, steady-state 1:1 model, read-out: SPR KD.
[9] abbreviates: read-out: SPR dissociation constant KD.

As a reminder, the Ki is the dissociation constant of the complex between target and ligand, obtained from inhibition or displacement. Low readings indicate higher affinity, high ones lower affinity. The Kd is the free concentration of one partner at which half of the binding sites on the other are occupied at equilibrium, for simple one-to-one binding.

Each structure is given as a SMILES string. Where two headings read alike, the source gives them in different places. Where a SMILES comes first, the peptide text is derived from it. [ ]: non-standard residue; d: D form. pY = N[C@@H](Cc1ccc(OP(=O)(O)O)cc1)C(=O)O

T1 sequence (O14508 32-198): as the sequence (O14508 32-198 N94D) above, with D63N counted along it
T1 sequence (Q15370 1-104 partner limits assumed): as the sequence (Q15370 1-104 partner limits assumed) above
T1 sequence (Q15369 17-112 partner limits assumed): as the sequence (Q15369 17-112 partner limits assumed) above
Sequence of SBC (SOCS2-ElonginB-ElonginC) (O14508 32-198): as the sequence (O14508 32-198 N94D) above, with D63N counted along it
Sequence of SBC (SOCS2-ElonginB-ElonginC) (Q15370 1-104 partner limits assumed): as the sequence (Q15370 1-104 partner limits assumed) above
Sequence of SBC (SOCS2-ElonginB-ElonginC) (Q15369 17-112 partner limits assumed): as the sequence (Q15369 17-112 partner limits assumed) above
T3 sequence (O14508 32-198 R96L): as the sequence (O14508 32-198 N94D) above, with D63N, R65L counted along it
T3 sequence (Q15370 1-104 partner limits assumed): as the sequence (Q15370 1-104 partner limits assumed) above
T3 sequence (Q15369 17-112 partner limits assumed): as the sequence (Q15369 17-112 partner limits assumed) above
T2 sequence (O14508 32-198): as the sequence (O14508 32-198 N94D) above, with D63N counted along it
T2 sequence (Q15370 1-104 partner limits assumed): as the sequence (Q15370 1-104 partner limits assumed) above
T2 sequence (Q15369 17-112 partner limits assumed): as the sequence (Q15369 17-112 partner limits assumed) above
T5 sequence (O14508 32-198 L106V): as the sequence (O14508 32-198 N94D) above, with D63N, L75V counted along it
T5 sequence (Q15370 1-104 partner limits assumed): as the sequence (Q15370 1-104 partner limits assumed) above
T5 sequence (Q15369 17-112 partner limits assumed): as the sequence (Q15369 17-112 partner limits assumed) above

`CC[C@H](C)[C@H](NC(=O)[C@H](CO)NC(=O)[C@@H](NC(=O)[C@H](Cc1ccc(OP(=O)(O)O)cc1)NC(=O)[C@H](CC(=O)O)NC(=O)[C@@H]1CCCN1C(=O)[C@H](C)NC(=O)[C@@H]1CCCN1)[C@@H](C)O)C(=O)N[C@@H](Cc1c[nH]cn1)C(=O)N[C@H](C(=O)N[C@H](C(N)=O)C(C)C)[C@@H](C)CC` [PAPDpYTSIHIV] showed a Ki in assay [1] of 3.4 ± 0.25 µM.

With `CC[C@H](C)[C@H](NC(=O)[C@H](CO)NC(=O)[C@@H](NC(=O)[C@H](Cc1ccc(OP(=O)(O)O)cc1)NC(=O)[C@H](CC(=O)O)NC(=O)[C@@H]1CCCN1C(=O)[C@H](CCCNC(=N)N)NC(=O)[C@@H]1CCCN1)[C@@H](C)O)C(=O)N[C@@H](Cc1c[nH]cn1)C(=O)N[C@H](C(=O)N[C@H](C(N)=O)C(C)C)[C@@H](C)CC` [V(−3)R] (H-PRPD[pY]TSIHIV-NH2), the dissociation constant Kd in assay [2] (setting [8]) came out at 9 ± 1.05 µM.

For `CC[C@H](C)[C@H](NC(=O)[C@@H](NC(=O)[C@H](Cc1ccc(OP(=O)(O)O)cc1)NC(=O)[C@H](CCC(=O)O)NC(=O)[C@H](Cc1ccccc1)NC(=O)[C@H](CO)NC(=O)[C@H](C)N)[C@@H](C)O)C(=O)N[C@@H](CC(C)C)C(=O)N[C@@H](C)C(=O)N1CCC[C@H]1C(=O)N[C@@H](CO)C(N)=O` [ASFEpYTILAPS] (H-ASFE[pY]TILAPS-NH2), the Kd in assay [2] (setting [8]) was 18 ± 0.91 µM. Also, affinity in assay [1] was put at a Ki of 14.1 ± 1.74 µM.

As to `CC[C@H](C)[C@H](NC(=O)[C@H](CO)NC(=O)[C@@H](NC(=O)[C@H](Cc1ccc(OP(=O)(O)O)cc1)NC(=O)[C@H](CC(=O)O)NC(=O)[C@@H]1CCCN1C(=O)[C@H](Cc1ccc(O)cc1)NC(=O)[C@@H]1CCCN1)[C@@H](C)O)C(=O)N[C@@H](Cc1c[nH]cn1)C(=O)N[C@H](C(=O)N[C@H](C(N)=O)C(C)C)[C@@H](C)CC` [V(−3)Y] (H-PYPD[pY]TSIHIV-NH2), the equilibrium dissociation constant (Kd) in assay [2] (setting [8]) is 3.3 ± 0.13 µM. In assay [1], this compound gave an inhibition constant (Ki) of 3.3 ± 0.24 µM.

In turn, `CC[C@H](C)[C@H](NC(=O)[C@H](CO)NC(=O)[C@@H](NC(=O)[C@H](Cc1ccc(OP(=O)(O)O)cc1)NC(=O)[C@H](CC(=O)O)NC(=O)[C@@H]1CCCN1C(=O)[C@@H](NC(=O)[C@H](C)N)C(C)C)[C@@H](C)O)C(=O)N[C@@H](Cc1c[nH]cn1)C(=O)N[C@H](C(=O)N[C@H](C(N)=O)C(C)C)[C@@H](C)CC` [AVPDpYTSIHIV] gave a Ki in assay [1] of 0.9 ± 0.17 µM.

For the compound `CC[C@H](C)[C@H](NC(=O)[C@H](Cc1c[nH]cn1)NC(=O)[C@@H](NC(=O)[C@H](CO)NC(=O)[C@@H](NC(=O)[C@H](Cc1ccc(OP(=O)(O)O)cc1)NC(=O)[C@H](CC(=O)O)NC(=O)[C@@H]1CCCN1C(=O)[C@@H](NC(=O)[C@@H]1CCCN1)C(C)C)[C@@H](C)O)[C@@H](C)CC)C(=O)N[C@@H](C)C(N)=O` [PVPDpYTSIHIA], in assay [2] (setting [8]), the dissociation constant (Kd) turned out to be 1.9 ± 0.09 µM.

As for `CC[C@H](C)[C@H](NC(=O)[C@@H](NC(=O)[C@H](Cc1ccc(OP(=O)(O)O)cc1)NC(=O)[C@H](C)NC(=O)[C@H](Cc1ccccc1)NC(=O)[C@H](CO)NC(=O)[C@H](C)N)[C@@H](C)O)C(=O)N[C@@H](CC(C)C)C(=O)N[C@@H](CC(=O)O)C(=O)N1CCC[C@H]1C(=O)N[C@@H](CO)C(N)=O` [ASFApYTILDPS] (H-ASFA[pY]TILDPS-NH2), the dissociation constant Kd in assay [2] (setting [8]) came out at 21.7 ± 1.49 µM.

As to `CC[C@H](C)[C@H](NC(=O)[C@@H](NC(=O)[C@H](Cc1ccc(OP(=O)(O)O)cc1)NC(=O)[C@H](CCC(=O)O)NC(=O)[C@H](Cc1ccccc1)NC(=O)[C@H](CO)NC(=O)[C@H](C)N)[C@@H](C)O)C(=O)N[C@@H](CC(C)C)C(=O)N[C@@H](CC(=O)O)C(=O)N[C@@H](C)C(=O)N[C@@H](CO)C(N)=O` [ASFEpYTILDAS] (H-ASFE[pY]TILDAS-NH2), the dissociation constant (Kd) in assay [2] (setting [8]) amounted to 8.9 ± 1.25 µM. Further, in assay [1], affinity was put at a Ki of 6.9 ± 1.39 µM.

For `CC[C@H](C)[C@H](NC(=O)[C@H](C)NC(=O)[C@@H](NC(=O)[C@H](CO)NC(=O)[C@@H](NC(=O)[C@H](Cc1ccc(OP(=O)(O)O)cc1)NC(=O)[C@H](CC(=O)O)NC(=O)[C@@H]1CCCN1C(=O)[C@@H](NC(=O)[C@@H]1CCCN1)C(C)C)[C@@H](C)O)[C@@H](C)CC)C(=O)N[C@H](C(N)=O)C(C)C` [PVPDpYTSIAIV] (H-PVPD[pY]TSIAIV-NH2), the Kd in assay [2] (setting [8]) was 6.7 ± 0.78 µM.

Take `CC[C@H](C)[C@H](NC(=O)[C@H](CC(=O)O)NC(=O)[C@H](CO)NC(=O)[C@@H](NC(=O)[C@H](CCC(N)=O)NC(=O)[C@H](C)NC(=O)[C@H](Cc1ccc(OP(=O)(O)O)cc1)NC(=O)[C@H](Cc1ccccc1)NC(=O)[C@H](CC(=O)O)NC(=O)[C@@H](NC(=O)[C@@H](N)CC(N)=O)[C@@H](C)CC)C(C)C)C(N)=O` [GHR_pY487] (H-NIDF[pY]AQVSDI-NH2): the dissociation constant Kd in assay [2] (Table 3, wild-type SOCS2 (SBC), 10 °C, read-out: SPR dissociation constant KD) is 5.1 ± 0.77 µM; in assay [3] it was 2.3 µM; in assay [4] (setting [9]), more than 60 µM; in assay [6] it was 8.9 ± 0.7 µM; in assay [7] (setting [9]), more than 60 µM. For the same compound, the “SPR KD” value in assay [4] (replicate 1), in assay [4] (replicate 2), in assay [4] (replicate 3), in assay [4] (replicate 4), in assay [5] (replicate 1) and in assay [5] (replicate 2) was “weak” each time. For the same compound, the “SPR KD” value in assay [5] (replicate 3) was “weak”; in assay [5] (replicate 4), “weak”; in assay [7] (replicate 1), “nb”; in assay [7] (replicate 2), “nb”; in assay [7] (replicate 3) it was “nb”; in assay [7] (replicate 4) it was “nb”.

Regarding `CC[C@H](C)[C@H](NC(=O)[C@H](CO)NC(=O)[C@H](C)NC(=O)[C@H](Cc1ccc(OP(=O)(O)O)cc1)NC(=O)[C@H](CC(=O)O)NC(=O)[C@@H]1CCCN1C(=O)[C@@H](NC(=O)[C@@H]1CCCN1)C(C)C)C(=O)N[C@@H](Cc1c[nH]cn1)C(=O)N[C@H](C(=O)N[C@H](C(N)=O)C(C)C)[C@@H](C)CC` [PVPDpYASIHIV] (H-PVPD[pY]ASIHIV-NH2), the Kd in assay [2] (setting [8]) amounted to 1 ± 0.09 µM. In assay [1], this compound showed a Ki of 0.5 ± 0.07 µM.

For `CC[C@H](C)[C@H](NC(=O)[C@H](Cc1c[nH]cn1)NC(=O)[C@H](C)NC(=O)[C@H](CO)NC(=O)[C@@H](NC(=O)[C@H](Cc1ccc(OP(=O)(O)O)cc1)NC(=O)[C@H](CC(=O)O)NC(=O)[C@@H]1CCCN1C(=O)[C@@H](NC(=O)[C@@H]1CCCN1)C(C)C)[C@@H](C)O)C(=O)N[C@H](C(N)=O)C(C)C` [PVPDpYTSAHIV] (H-PVPD[pY]TSAHIV-NH2), the Ki in assay [1] was found to be 3.4 ± 0.66 µM.

As for `CC(C)C[C@H](NC(=O)[C@H](C)NC(=O)[C@@H](NC(=O)[C@H](Cc1ccc(OP(=O)(O)O)cc1)NC(=O)[C@H](CCC(=O)O)NC(=O)[C@H](Cc1ccccc1)NC(=O)[C@H](CO)NC(=O)[C@H](C)N)[C@@H](C)O)C(=O)N[C@@H](CC(=O)O)C(=O)N1CCC[C@H]1C(=O)N[C@@H](CO)C(N)=O` [ASFEpYTALDPS] (H-ASFE[pY]TALDPS-NH2), the affinity in assay [1], expressed as Ki, was 17.2 ± 0.89 µM. This Ki lies about 5.1-fold higher than the previous one.
